Measurements taken from PubChem BioAssay (NCI).
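Method: 48-hour compound exposure of cells in 96-well plates, five concentrations, linear interpolation of endpoints. The concentration for 50% growth inhibition is given as GI50. TGI: concentration producing complete growth inhibition.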

Columns and labels:
Experiment in all cases: DTP human tumour cell line panel, 48 h
UACC-62 melanoma = system: UACC-62 melanoma
HOP-92 NSCLC = system: HOP-92 NSCLC
SNB-75 CNS = system: SNB-75 CNS
KM12 colon = system: KM12 colon
BT-549 breast = system: BT-549 breast
U251 CNS = system: U251 CNS
NCI-H23 lung = system: NCI-H23 lung
DU-145 prostate = system: DU-145 prostate
ACHN renal = system: ACHN renal
COLO 205 colon = system: COLO 205 colon
UO-31 renal = system: UO-31 renal
HOP-62 NSCLC = system: HOP-62 NSCLC
A549 NSCLC = system: A549 NSCLC
NCI/ADR-RES ovarian = system: NCI/ADR-RES ovarian
TK-10 renal = system: TK-10 renal
RPMI-8226 leukemia = system: RPMI-8226 leukemia
NCI-H522 lung = system: NCI-H522 lung
CAKI-1 renal = system: CAKI-1 renal
SK-MEL-2 melanoma = system: SK-MEL-2 melanoma
HT29 colon = system: HT29 colon
PC-3 prostate = system: PC-3 prostate
MALME-3M melanoma = system: MALME-3M melanoma
HCC-2998 colon = system: HCC-2998 colon
M14 melanoma = system: M14 melanoma
OVCAR-4 ovarian = system: OVCAR-4 ovarian
SW-620 colon = system: SW-620 colon
SF-295 CNS = system: SF-295 CNS
HS 578T breast = system: HS 578T breast
SK-MEL-28 melanoma = system: SK-MEL-28 melanoma
CCRF-CEM leukemia = system: CCRF-CEM leukemia
SK-MEL-5 melanoma = system: SK-MEL-5 melanoma
HL-60(TB) leukemia = system: HL-60(TB) leukemia
HCT-15 colon = system: HCT-15 colon
UACC-257 melanoma = system: UACC-257 melanoma
SF-268 CNS = system: SF-268 CNS
K-562 leukemia = system: K-562 leukemia
OVCAR-8 ovarian = system: OVCAR-8 ovarian
OVCAR-5 ovarian = system: OVCAR-5 ovarian
SR leukemia = system: SR leukemia
NCI-H226 lung = system: NCI-H226 lung
786-0 renal = system: 786-0 renal
SNB-19 CNS = system: SNB-19 CNS
HCT-116 colon = system: HCT-116 colon
SN12C renal = system: SN12C renal
MOLT-4 leukemia = system: MOLT-4 leukemia
SK-OV-3 ovarian = system: SK-OV-3 ovarian
NCI-H460 lung = system: NCI-H460 lung
EKVX NSCLC = system: EKVX NSCLC
MCF7 breast = system: MCF7 breast
T-47D breast = system: T-47D breast
LOX IMVI melanoma = system: LOX IMVI melanoma
MDA-MB-435 = system: MDA-MB-435
MDA-MB-231 breast = system: MDA-MB-231 breast
OVCAR-3 ovarian = system: OVCAR-3 ovarian
RXF 393 renal = system: RXF 393 renal
A498 renal = system: A498 renal
IGROV1 ovarian = system: IGROV1 ovarian
SF-539 CNS = system: SF-539 CNS

COc1cc2ncnc(-n3ncc4cc(NC(=O)Nc5ccc(Cl)c(Cl)c5)ccc43)c2cc1OC
GI50 (UACC-62 melanoma): 1.7 µM | TGI (UACC-62 melanoma): 3.44 µM | GI50 (HOP-92 NSCLC): 1.92 µM | TGI (HOP-92 NSCLC): 4.19 µM | GI50 (SNB-75 CNS): 1.24 µM | TGI (SNB-75 CNS): 3.41 µM | GI50 (KM12 colon): 0.0514 µM | TGI (KM12 colon): 9.66 µM | GI50 (BT-549 breast): 1.97 µM | TGI (BT-549 breast): 4.17 µM | GI50 (U251 CNS): 1.5 µM | TGI (U251 CNS): 3.06 µM | GI50 (NCI-H23 lung): 1.93 µM | TGI (NCI-H23 lung): 4.24 µM | GI50 (DU-145 prostate): 3.2 µM | TGI (DU-145 prostate): 11.9 µM | GI50 (ACHN renal): 1.45 µM | TGI (ACHN renal): 3.25 µM | GI50 (COLO 205 colon): 2.32 µM | TGI (COLO 205 colon): 5.58 µM | GI50 (UO-31 renal): 2.04 µM | TGI (UO-31 renal): 4.17 µM | GI50 (HOP-62 NSCLC): 1.91 µM | TGI (HOP-62 NSCLC): 3.76 µM | GI50 (A549 NSCLC): 2.69 µM | TGI (A549 NSCLC): 5.75 µM | GI50 (NCI/ADR-RES ovarian): 2.36 µM | TGI (NCI/ADR-RES ovarian): 6.23 µM | GI50 (TK-10 renal): 2.38 µM | TGI (TK-10 renal): 6.45 µM | GI50 (RPMI-8226 leukemia): 2.11 µM | TGI (RPMI-8226 leukemia): 7.52 µM | GI50 (NCI-H522 lung): 2.5 µM | TGI (NCI-H522 lung): 6 µM | GI50 (CAKI-1 renal): 2.3 µM | TGI (CAKI-1 renal): 5.94 µM | GI50 (SK-MEL-2 melanoma): 2.31 µM | TGI (SK-MEL-2 melanoma): 5.01 µM | GI50 (HT29 colon): 1.98 µM | TGI (HT29 colon): 4.29 µM | GI50 (PC-3 prostate): 1.55 µM | TGI (PC-3 prostate): 3.24 µM | GI50 (MALME-3M melanoma): 1.72 µM | TGI (MALME-3M melanoma): 3.89 µM | GI50 (HCC-2998 colon): 2.61 µM | TGI (HCC-2998 colon): 8.87 µM | GI50 (M14 melanoma): 1.65 µM | TGI (M14 melanoma): 3.58 µM | GI50 (OVCAR-4 ovarian): 1.92 µM | TGI (OVCAR-4 ovarian): 3.89 µM | GI50 (SW-620 colon): 2.26 µM | TGI (SW-620 colon): 4.76 µM | GI50 (SF-295 CNS): 1.38 µM | TGI (SF-295 CNS): 2.94 µM | GI50 (HS 578T breast): 2 µM | TGI (HS 578T breast): 7.95 µM | GI50 (SK-MEL-28 melanoma): 1.57 µM | TGI (SK-MEL-28 melanoma): 3.24 µM | GI50 (CCRF-CEM leukemia): 4.01 µM | TGI (CCRF-CEM leukemia): 42.3 µM | GI50 (SK-MEL-5 melanoma): 2.09 µM | TGI (SK-MEL-5 melanoma): 3.89 µM | GI50 (HL-60(TB) leukemia): 4.44 µM | TGI (HL-60(TB) leukemia): 85 µM | GI50 (HCT-15 colon): 1.93 µM | TGI (HCT-15 colon): 4.87 µM | GI50 (UACC-257 melanoma): 3.23 µM | TGI (UACC-257 melanoma): 6.79 µM | GI50 (SF-268 CNS): 2.44 µM | TGI (SF-268 CNS): 7.32 µM | GI50 (K-562 leukemia): 3.02 µM | TGI (K-562 leukemia): 10.8 µM | GI50 (OVCAR-8 ovarian): 2.77 µM | TGI (OVCAR-8 ovarian): 7.07 µM | GI50 (OVCAR-5 ovarian): 1.83 µM | TGI (OVCAR-5 ovarian): 4.31 µM | GI50 (SR leukemia): 2.75 µM | TGI (SR leukemia): > 100 µM | GI50 (NCI-H226 lung): 2.45 µM | TGI (NCI-H226 lung): 4.8 µM | GI50 (786-0 renal): 1.56 µM | TGI (786-0 renal): 3.52 µM | GI50 (SNB-19 CNS): 2.66 µM | TGI (SNB-19 CNS): 9.58 µM | GI50 (HCT-116 colon): 2.8 µM | TGI (HCT-116 colon): 10.3 µM | GI50 (SN12C renal): 2.1 µM | TGI (SN12C renal): 4.78 µM | GI50 (MOLT-4 leukemia): 2.04 µM | TGI (MOLT-4 leukemia): 11.4 µM | GI50 (SK-OV-3 ovarian): 2.04 µM | TGI (SK-OV-3 ovarian): 4.03 µM | GI50 (NCI-H460 lung): 2.08 µM | TGI (NCI-H460 lung): 4.57 µM | GI50 (EKVX NSCLC): 3.06 µM | TGI (EKVX NSCLC): 9.84 µM | GI50 (MCF7 breast): 1.85 µM | TGI (MCF7 breast): 4.56 µM | GI50 (T-47D breast): 2.39 µM | TGI (T-47D breast): 7.17 µM | GI50 (LOX IMVI melanoma): 1.97 µM | TGI (LOX IMVI melanoma): 3.76 µM | GI50 (MDA-MB-435): 1.84 µM | TGI (MDA-MB-435): 4.29 µM | GI50 (MDA-MB-231 breast): 1.96 µM | TGI (MDA-MB-231 breast): 4.03 µM | GI50 (OVCAR-3 ovarian): 1.92 µM | TGI (OVCAR-3 ovarian): 3.7 µM | GI50 (RXF 393 renal): 1.53 µM | TGI (RXF 393 renal): 3.29 µM | GI50 (A498 renal): 2.37 µM | TGI (A498 renal): 6.24 µM | GI50 (IGROV1 ovarian): 2.05 µM | TGI (IGROV1 ovarian): 4.66 µM | GI50 (SF-539 CNS): 0.612 µM | TGI (SF-539 CNS): 2.47 µM
